Measurements taken from DBAASP.
≈ marks a conversion by molar mass, not a printed value.

Tests used:
Assay in all cases: ≥ marks a high value that may be exact or a test limit, other limits are often not marked, values filed in µg/mL are converted to µM
Escherichia coli BL21 = system: Escherichia coli BL21
[1] = system: Pseudomonas aeruginosa PAO1
[2] = system: Streptococcus pyogenes M1T1 5448
[3] = system: Staphylococcus aureus USA 300
Staphylococcus aureus MR = system: Staphylococcus aureus MR
[4] = system: Staphylococcus aureus ATCC 49476
[5] = system: Pseudomonas aeruginosa ATCC 27853
Candida albicans = system: Candida albicans
Leuconostoc lactis = system: Leuconostoc lactis
Bacillus subtilis 168 = system: Bacillus subtilis 168

Structure (SMILES) | MIC (Staphylococcus aureus MR) [µM] | MIC [4] [µM] | MIC [5] [µM] | MIC (Candida albicans) [µM] | other results
CC[C@H](C)[C@H](NC(=O)[C@H](CCCCN)NC(=O)[C@H](CCCCN)NC(=O)CNC(=O)[C@H](CCC(=O)O)NC(=O)[C@H](CCC(N)=O)NC(=O)[C@@H](NC(=O)[C@H](CCCCN)NC(=O)[C@H](CCCCN)NC(=O)[C@H](CCCCN)NC(=O)[C@H](CC(C)C)NC(=O)[C@H](CCCN=C(N)N)NC(=O)[C@H](CCC(N)=O)NC(=O)[C@H](Cc1ccccc1)NC(=O)[C@@H](NC(=O)[C@H](CCCCN)NC(=O)[C@H](CCC(=O)O)NC(=O)[C@@H](NC(=O)CNC(=O)[C@H](C)N)[C@@H](C)O)[C@@H](C)CC)[C@@H](C)CC)C(=O)N[C@@H](C)C(=O)N[C@@H](CCCCN)C(=O)N[C@@H](CCCN=C(N)N)C(=O)N[C@@H](C)C(=O)N[C@@H](Cc1c[nH]c2ccccc12)C(=O)O [AGTEKIFQRLKKKIQEGKKIAKRAW] | – | – | – | – | MIC (Escherichia coli BL21): 1 µM (≈ 2.96 µg/mL); MIC [1]: 64 µM (≈ 189 µg/mL); MIC [2]: 0.25 µM (≈ 0.739 µg/mL); MIC [3]: 8 µM (≈ 23.7 µg/mL)
CC[C@H](C)[C@H](NC(=O)[C@H](C)NC(=O)[C@H](CCCCN)NC(=O)CNC(=O)[C@H](C)NC(=O)[C@H](CO)NC(=O)[C@H](Cc1ccccc1)NC(=O)[C@H](CC(C)C)NC(=O)CNC(=O)CNC(=O)[C@H](C)NC(=O)[C@H](C)NC(=O)[C@H](Cc1cnc[nH]1)NC(=O)[C@H](Cc1cnc[nH]1)NC(=O)[C@@H](NC(=O)[C@@H](N)Cc1ccccc1)[C@@H](C)CC)C(=O)N[C@@H](Cc1cnc[nH]1)C(=O)N[C@@H](CCCN=C(N)N)C(=O)N[C@@H](CC(C)C)C(=O)N[C@H](C(=O)N[C@@H](CCCN=C(N)N)C(=O)N[C@@H](CCCN=C(N)N)C(=O)N[C@@H](CCCN=C(N)N)C(=O)N[C@@H](CCCN=C(N)N)C(=O)N[C@@H](CCCN=C(N)N)C(=O)O)[C@@H](C)CC [FIHHAAGGLFSAGKAIHRLIRRRRR] | ≥ 177 | ≥ 177 | 177 (≈ 512 µg/mL) | 44.2 (≈ 128 µg/mL) | –
CC[C@H](C)[C@H](NC(=O)[C@H](Cc1cnc[nH]1)NC(=O)[C@H](CCCCN)NC(=O)CNC(=O)[C@@H](NC(=O)[C@H](CO)NC(=O)[C@H](Cc1ccccc1)NC(=O)[C@H](CC(C)C)NC(=O)CNC(=O)CNC(=O)[C@@H](NC(=O)[C@@H](NC(=O)[C@H](Cc1cnc[nH]1)NC(=O)[C@H](Cc1cnc[nH]1)NC(=O)[C@@H](NC(=O)[C@@H](N)Cc1ccccc1)[C@@H](C)CC)[C@@H](C)CC)[C@@H](C)CC)C(C)C)C(=O)N[C@@H](Cc1cnc[nH]1)C(=O)N[C@@H](CCCN=C(N)N)C(=O)N[C@@H](CC(C)C)C(=O)N[C@H](C(=O)N[C@@H](CCCN=C(N)N)C(=O)N[C@@H](CCCN=C(N)N)C(=O)N[C@@H](CCCN=C(N)N)C(=O)N[C@@H](CCCN=C(N)N)C(=O)N[C@@H](CCCN=C(N)N)C(=O)O)[C@@H](C)CC [FIHHIIGGLFSVGKHIHRLIRRRRR] | 10.4 (≈ 32 µg/mL) | 5.2 (≈ 16 µg/mL) | 41.6 (≈ 128 µg/mL) | 41.6 (≈ 128 µg/mL) | –
CC[C@H](C)[C@H](NC(=O)[C@H](CC(C)C)NC(=O)[C@H](CCCN=C(N)N)NC(=O)[C@H](Cc1cnc[nH]1)NC(=O)[C@H](CCCN=C(N)N)NC(=O)[C@H](C)NC(=O)[C@H](CCCCN)NC(=O)CNC(=O)[C@H](C)NC(=O)[C@H](CO)NC(=O)[C@H](Cc1ccccc1)NC(=O)[C@H](CC(C)C)NC(=O)CNC(=O)CNC(=O)[C@@H](NC(=O)[C@@H](NC(=O)[C@H](Cc1cnc[nH]1)NC(=O)[C@H](Cc1cnc[nH]1)NC(=O)[C@@H](NC(=O)[C@@H](N)Cc1ccccc1)[C@@H](C)CC)[C@@H](C)CC)[C@@H](C)CC)C(=O)N[C@@H](CCCN=C(N)N)C(=O)N[C@@H](CCCN=C(N)N)C(=O)N[C@@H](CCCN=C(N)N)C(=O)N[C@@H](CCCN=C(N)N)C(=O)N[C@@H](CCCN=C(N)N)C(=O)O [FIHHIIGGLFSAGKARHRLIRRRRR] | ≥ 169 | ≥ 169 | > 169 | 42.3 (≈ 128 µg/mL) | –
CC[C@H](C)[C@H](NC(=O)[C@H](CO)NC(=O)[C@H](CO)NC(=O)[C@@H](NC(=O)[C@H](CC(C)C)NC(=O)CN)C(C)C)C(=O)NCC(=O)N[C@@H](CCCCN)C(=O)N[C@@H](C)C(=O)N[C@@H](CC(C)C)C(=O)NCC(=O)NCC(=O)N[C@@H](CC(C)C)C(=O)N[C@@H](CC(C)C)C(=O)N[C@H](C(=O)N[C@@H](CC(=O)O)C(=O)N[C@H](C(=O)N[C@H](C(=O)N[C@@H](CCCCN)C(=O)N[C@@H](CO)C(=O)N[C@@H](CCCCN)C(=O)NCC(=O)N[C@@H](CCC(N)=O)C(=O)N1CCC[C@H]1C(=O)N[C@@H](C)C(=O)O)C(C)C)C(C)C)C(C)C [GLVSSIGKALGGLLVDVVKSKGQPA] | – | – | – | – | MIC (Leuconostoc lactis): 20.9 µM (≈ 50 µg/mL)
CC[C@H](C)[C@H](NC(=O)[C@H](CCCCN)NC(=O)[C@H](CC(C)C)NC(=O)[C@H](Cc1ccccc1)NC(=O)[C@H](CCCCN)NC(=O)[C@H](CCCCN)NC(=O)[C@H](Cc1ccccc1)NC(=O)[C@H](C)NC(=O)[C@H](CCCCN)NC(=O)[C@H](CCCCN)NC(=O)[C@H](Cc1ccccc1)NC(=O)[C@H](CC(C)C)NC(=O)[C@H](CCCCN)NC(=O)[C@H](Cc1c[nH]c2ccccc12)NC(=O)[C@H](CCCCN)NC(=O)CN)C(=O)N[C@@H](CC(C)C)C(=O)N[C@@H](C)C(=O)N[C@@H](CS)C(=O)O [GKWKLFKKAFKKFLKILAC] | – | – | – | – | MIC (Bacillus subtilis 168): 3.2 µM (≈ 7.35 µg/mL)
CC[C@H](C)[C@H](N)C(=O)N[C@H](C(=O)NCC(=O)NCC(=O)N[C@@H](CC(C)C)C(=O)N[C@@H](Cc1ccccc1)C(=O)N[C@@H](CO)C(=O)N[C@@H](C)C(=O)NCC(=O)N[C@@H](CCCCN)C(=O)N[C@@H](C)C(=O)N[C@H](C(=O)N[C@@H](Cc1cnc[nH]1)C(=O)N[C@@H](CCCN=C(N)N)C(=O)N[C@@H](CC(C)C)C(=O)N[C@H](C(=O)N[C@@H](CCCN=C(N)N)C(=O)N[C@@H](CCCN=C(N)N)C(=O)N[C@@H](CCCN=C(N)N)C(=O)N[C@@H](CCCN=C(N)N)C(=O)N[C@@H](CCCN=C(N)N)C(=O)O)[C@@H](C)CC)[C@@H](C)CC)[C@@H](C)CC [IIGGLFSAGKAIHRLIRRRRR] | 26.2 (≈ 64 µg/mL) | ≥ 52.3 | 105 (≈ 256 µg/mL) | 26.2 (≈ 64 µg/mL) | –
CC[C@H](C)[C@H](NC(=O)[C@H](CS)NC(=O)[C@H](CCSC)NC(=O)[C@H](C)NC(=O)[C@H](CCCN=C(N)N)NC(=O)[C@@H](N)CC(C)C)C(=O)N[C@@H](CCCCN)C(=O)N[C@@H](Cc1c[nH]c2ccccc12)C(=O)N[C@@H](Cc1c[nH]c2ccccc12)C(=O)N[C@@H](CO)C(=O)NCC(=O)N[C@@H](CCCCN)C(=O)N[C@@H](Cc1cnc[nH]1)C(=O)N1CCC[C@H]1C(=O)N[C@@H](CCCCN)C(=O)O [LRAMCIKWWSGKHPK] | – | – | – | – | MIC (Bacillus subtilis 168): 7 µM (≈ 12.9 µg/mL)
CC[C@H](C)[C@H](NC(=O)[C@H](CC(C)C)NC(=O)[C@H](CCCN=C(N)N)NC(=O)[C@H](Cc1cnc[nH]1)NC(=O)[C@H](C)NC(=O)[C@H](C)NC(=O)[C@H](CCCCN)NC(=O)CNC(=O)[C@H](C)NC(=O)[C@H](CO)NC(=O)[C@H](Cc1ccccc1)NC(=O)[C@H](CC(C)C)NC(=O)CNC(=O)CNC(=O)[C@@H](NC(=O)[C@@H](NC(=O)[C@H](Cc1cnc[nH]1)NC(=O)[C@H](Cc1cnc[nH]1)NC(=O)[C@@H](NC(=O)[C@@H](N)Cc1ccccc1)[C@@H](C)CC)[C@@H](C)CC)[C@@H](C)CC)C(=O)N[C@@H](CCCN=C(N)N)C(=O)N[C@@H](CCCN=C(N)N)C(=O)N[C@@H](CCCN=C(N)N)C(=O)N[C@@H](CCCN=C(N)N)C(=O)N[C@@H](CCCN=C(N)N)C(=O)O [FIHHIIGGLFSAGKAAHRLIRRRRR] | 21.8 (≈ 64 µg/mL) | 21.8 (≈ 64 µg/mL) | 87.1 (≈ 256 µg/mL) | 43.5 (≈ 128 µg/mL) | –
CC[C@H](C)[C@H](NC(=O)[C@H](CCCN=C(N)N)NC(=O)[C@H](CCC(N)=O)NC(=O)[C@H](Cc1c[nH]c2ccccc12)NC(=O)CNC(=O)[C@H](C)N)C(=O)N[C@@H](CCCCN)C(=O)N[C@@H](C)C(=O)N[C@@H](Cc1ccc(O)cc1)C(=O)N[C@@H](CC(C)C)C(=O)N[C@@H](CCCN=C(N)N)C(=O)N[C@@H](CCCN=C(N)N)C(=O)N[C@@H](CCC(=O)O)C(=O)N[C@H](C(=O)N[C@@H](CCCN=C(N)N)C(=O)N[C@@H](CCCCN)C(=O)N[C@@H](CCCN=C(N)N)C(=O)NCC(=O)N[C@@H](CCCN=C(N)N)C(=O)N[C@@H](CCCCN)C(=O)N[C@@H](C)C(=O)N[C@H](C(=O)N[C@H](C(=O)N[C@@H](C)C(=O)N[C@@H](Cc1c[nH]c2ccccc12)C(=O)O)[C@@H](C)CC)C(C)C)[C@@H](C)CC [AGWQRIKAYLRREIRKRGRKAVIAW] | – | – | – | – | MIC (Escherichia coli BL21): 1 µM (≈ 3.08 µg/mL); MIC [1]: 2 µM (≈ 6.17 µg/mL); MIC [2]: 2 µM (≈ 6.17 µg/mL)
